Marks after values point to notes of the source that are not given here.
Key:
HCT-116 and SW620 cells = assay: Expression of apoptosis-related proteins by immunoblotting; assay type: cell-based, human; conditions: colon carcinoma cells, 10 μM
Protocol: Induction of apoptosis in human colon cancer HCT-116 cell line by Compound 3 (FIG. 8A). The induction of apoptosis was quantitated as the percentage of cells in the sub-G1 region (hypodiplody) of cell cycle analysis. Briefly, cells (5×10^5) were centrifuged and fixed overnight in 70% ethanol at 4° C. Cells were washed 3 times with PBS, incubated for 1 h with 1 mg/ml RNaseA and 20 μg/ml propidium iodide at room temperature, and then analyzed for cell cycle with a Becton Dickinson FACSCalibur flow cytometer (San Jose, Calif.). HCT-116 cells were incubated for the indicated times with 10 μM Compound 3, and apoptosis was then quantitated as percentage of cells in the sub-G1 region in cell cycle analysis by flow cytometry. The position of the sub-G1 peak (hypodiploidy), integrated by apoptotic cells, as well as the G0/G1 and G2/M peaks are indicated by arrows. Untreated control cells were run in parallel. The percentage of cells with a DNA content less than G1 (sub-G1) is indicated in each histogram. The experiment shown is representative of three performed Expression of different apoptosis-related proteins during Compound 3 treatment (FIG. 8B), HCT-116 and SW620 cells were treated with 10 μM Compound 3 for the indicated times and analyzed by immunoblotting with specific antibodies for the indicated proteins. The migration positions of the different proteins are indicated. β-actin was used as a loading control. Data shown are representative of three experiments performed. About 10^7 cells were pelleted by centrifugation, washed with PBS, and lysed. […]

[1] = test system: HL-60 (acute myeloid leukaemia); assay: Apoptosis, sub-G1 peak by flow cytometry; assay type: cell-based, human; conditions: 10 μM, 24 h
Protocol: (§1) Incubation of Compound 3 with different human hematological cancer cell lines, including CLL, MM, acute T-cell and acute myeloid leukaemia cell lines, induced apoptosis, as assessed by the appearance of cells with a DNA content less than G1, characteristic of early apoptosis (sub-G1 peak; after 6-9 h treatment). More than 20% apoptosis was induced after 24 h treatment of 10 μM Compound 3 with EHEB (CLL), RPMI-8226 (MM), Jurkat (acute T-cell leukaemia) and HL-60 (acute myeloid leukaemia) cells.
(§2) Induction of apoptosis in EHEB cells by Compound 3 (FIG. 7A): EHEB cells were incubated for the indicated times with 10 μM Compound 3, and apoptosis was then quantitated as percentage of cells in the sub-G1 region in cell cycle analysis by flow cytometry. The position of the sub-G1 peak (hypodiploidy), integrated by apoptotic cells, as well as the G0/G1 and G2/M peaks are indicated by arrows. Untreated control cells were run in parallel. The percentage of cells with a DNA content less than G1 (sub-G1) is indicated in each histogram. The experiment shown is representative of three performed. Briefly, cells (5×10^5) were centrifuged and fixed overnight in 70% ethanol at 4° C. Cells were washed 3 times with PBS, incubated for 1 h with 1 mg/ml RNaseA and 20 μg/ml propidium iodide at room temperature, and then analyzed for cell cycle with a Becton Dickinson FACS Calibur flow cytometer (San Jose, Calif.). Quantitation of apoptotic cells was calculated as the percentage of cells in the sub-G1 region (hypodiploidy) in cell cycle analysis.

[2] = test system: Jurkat (acute T-cell leukaemia); assay: Apoptosis, sub-G1 peak by flow cytometry; assay type: cell-based, human; conditions: 10 μM, 24 h
Protocol: as §1, §2

EHEB (CLL) = assay: Apoptosis, sub-G1 peak by flow cytometry; assay type: cell-based, human; conditions: 10 μM, 24 h
Protocol: as §1, §2

RPMI-8226 (MM) = assay: Apoptosis, sub-G1 peak by flow cytometry; assay type: cell-based, human; conditions: 10 μM, 24 h
Protocol: as §1, §2

MM1S cells = assay: Multiple myeloma xenograft animal model; assay type: in vivo, CB17-SCID mice; conditions: 2.5 mg/kg i.v. 3 times/week
Protocol: The multiple myeloma (MM) MM1S cell line was cultured in RPMI-1640 medium containing 10% (v/v) heat-inactivated fetal bovine serum, 2 mM L-glutamine, 100 U/ml penicillin, and 100 μg/ml streptomycin at 37° C. in humidified 95% air and 5% CO2. Cells were periodically tested for Mycoplasma infection and found to be negative.
CB 17-severe combined immunodeficiency (SCID) mice (Charles River laboratories, Lyon, France), kept and handled according to institutional guidelines, complying with Spanish legislation under a 12/12 h light/dark cycle at a temperature of 22° C., received a standard diet and acidified water ad libitum. CB17-SCID mice were inoculated subcutaneously into their lower dorsum with 3×10^7MM1S cells in 100 μl PBS and 100 μl Matrigel basement membrane matrix (Becton Dickinson). When tumors were palpable, mice were randomly assigned into cohorts of 10 mice each, receiving i.v. administration (3 times/week) of the compound at the tail. The volume used for each i. v. administration was […] rendering a final drug concentration of 2.5 mg/kg (body weight). Mice i.v. administered with an equal volume of vehicle were run in parallel. The shortest and longest diameter of the tumor were measured with calipers, and tumor volume (10^−3 cm^3) was calculated using the following standard formula: […]. Animals were sacrificed, according to institutional guidelines, when the diameter of their tumors reached 3 cm or when significant toxicity was observed. Animal body weight and any sign of morbidity were monitored. Drug treatment was for 1 month. Then, tumors were isolated, measured and weighed, and a necropsy analysis involving tumors and distinct organs was carried out.

Fc1ccc(CNCCCC=C(c2ccccc2)c2ccccc2)cc1 [Compound 3, (5,5-diphenyl-pent-4-enyl)-(4-fluoro-benzyl)-amine hydrocloride]
caspase-9 (HCT-116 and SW620 cells): induction
expression of Mcl-1S (HCT-116 and SW620 cells): induced the expression
protein level of p53 (HCT-116 and SW620 cells): increased
apoptosis [1]: More than 20%
apoptosis [2]: More than 20%
apoptosis (EHEB (CLL)): More than 20%
apoptosis (RPMI-8226 (MM)): More than 20%
MM tumor volume, difference over the control for all measure days (MM1S cells; 1 month): stadistically significant
Tumor Volume (MM1S cells; ex vivo after 1 month): 0.288 cm^3
Tumor Weight (MM1S cells; ex vivo after 1 month): 0.647 g
Inhibition (%) of Tumor Volume (MM1S cells; vs control, 1 month): 92.26** %
Inhibition (%) of Tumor Weight (MM1S cells; vs control, 1 month): 85.84* %

— patent US20130296346A1, “DIPHENYL-AMINE DERIVATIVES: USES, PROCESS OF SYNTHESIS AND PHARMACEUTICAL COMPOSITIONS” (Faes Farma, S.A., priority 2010, published 2013)
